Test results as given in patent US9636308B2, “High drug load buprenorphine microspheres and method of producing same” (Oakwood Laboratories LLC, priority 2013, dated 2017).

Test: Solubility of buprenorphine in solvent systems by visual observation
Source text: DCM was used as the main solvent and BzOH as the co-solvent.

What does the source list for `CO[C@@]12CC[C@@]3(C[C@@H]1[C@](C)(O)C(C)(C)C)[C@H]1Cc4ccc(O)c5c4[C@@]3(CCN1CC1CC1)[C@H]2O5.Cl` [Buprenorphine (salt form), Buprenorphine hydrochloride]?
Increase of solubility by addition of BzOH to DCM (DCM:BzOH 2:1 by weight versus DCM alone): ~46 fold; Solubility (solvent DCM with benzyl alcohol co-solvent (33% by weight; 2:1 DCM:BzOH)): 0.083 g/g; Solubility (solvent DCM, no co-solvent): 0.0018 g/g
